Test [1] concerns the target T1, human PDE5 (Homo sapiens, UniProt O76074).
T1 construct: from tissue; host or cells: human platelets from fresh donor blood (10,000 g supernatant of sonicated platelets)
The experiment in a line: Inhibition of PDE5 activity (SPA, [3H]cGMP, platelet lysate). It is filed as biochemical. The following applies: PDE5 from human platelet lysate; values given as bins; read-out: PDE5A inhibitory values measured as −logIC50 (converted). The method, boiled down:
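Human platelet lysate served as PDE5 source, with 1 μM motapizone and 10 nM PDE2 inhibitor present; […] plus [3H]cGMP tracer, pH 7.4, 5 mM Mg2+, 10-20% substrate turnover. After 5 min preincubation, 15 min at 37 °C, stopped with SPA beads and IBMX; IC50 by non-linear regression.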

The target in test [2] is T2, PDE4B1 (Homo sapiens, UniProt Q07343).
T2 construct: made in house; host or cells: SF21 insect cells (baculovirus; pCR-Bac vector)
The experiment in a line: Inhibition of PDE4B1 activity (SPA, [3H]cAMP). The test is classed as biochemical. The following applies: recombinant PDE4B1 expressed in SF21 cells; 0.5 pM [sic] cAMP; values given as bins; read-out: PDE4B1 inhibitory values measured as −logIC50 (converted). In outline: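 Recombinant human PDE4B1 (Sf21 cell 1000 g supernatant) in 20 mM Tris pH 7.4, 0.1 mg/ml BSA, 5 mM Mg2+, […] with [3H]cAMP tracer, enzyme giving 10-20% conversion. After 5 min preincubation at 37 °C, 15 min reaction, stopped by SPA beads with IBMX; IC50 by non-linear regression.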

SMILES strings stand for the structures.

T2 sequence (Q07343 whole entry): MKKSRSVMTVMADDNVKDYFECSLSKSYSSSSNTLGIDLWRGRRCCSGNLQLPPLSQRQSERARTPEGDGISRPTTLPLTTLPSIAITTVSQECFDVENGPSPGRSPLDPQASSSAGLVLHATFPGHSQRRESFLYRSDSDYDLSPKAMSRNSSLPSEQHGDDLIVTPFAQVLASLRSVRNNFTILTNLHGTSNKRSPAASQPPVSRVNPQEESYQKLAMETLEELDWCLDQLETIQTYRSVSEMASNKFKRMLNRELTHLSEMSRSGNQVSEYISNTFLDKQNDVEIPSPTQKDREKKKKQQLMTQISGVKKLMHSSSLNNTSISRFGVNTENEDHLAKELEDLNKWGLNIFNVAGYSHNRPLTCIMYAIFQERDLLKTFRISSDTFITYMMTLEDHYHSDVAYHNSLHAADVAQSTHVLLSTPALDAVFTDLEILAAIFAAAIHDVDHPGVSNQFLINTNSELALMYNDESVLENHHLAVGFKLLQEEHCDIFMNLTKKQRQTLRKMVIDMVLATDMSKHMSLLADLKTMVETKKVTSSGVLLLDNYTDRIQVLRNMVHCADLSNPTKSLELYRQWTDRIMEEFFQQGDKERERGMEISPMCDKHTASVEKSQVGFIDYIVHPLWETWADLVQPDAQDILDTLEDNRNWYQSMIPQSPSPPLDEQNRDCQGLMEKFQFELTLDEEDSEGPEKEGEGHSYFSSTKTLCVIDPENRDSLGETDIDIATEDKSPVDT

For `CCOc1cc2c(cc1OC)C(c1ccc(C(=O)N3CCC(n4c(=O)c5sc(-c6ccccc6)cc5n(Cc5nc(CC)ns5)c4=O)CC3)cc1)=N[C@@H]1CCSC[C@H]21` [Example 22, 3-[1-({4-[(4aR,10bR)-9-ethoxy-8-methoxy-3,4,4a,10b-tetrahydro-1H-thiopyrano[4,3-c]isoquinolin-6-yl]phenyl}carbonyl)piperidin-4-yl]-1-[(3-ethyl-1,2,4-thiadiazol-5-yl)methyl]-6-phenylthieno[3,2-d]pyrimidine-2,4(1H,3H)-dione], the IC50 in test [1] is 10 to 100 nM; in test [2], 1 to 10 nM.

On to `CCOc1cc2c(cc1OC)C(c1ccc(C(=O)N3CCC(n4c(=O)c5sc(-c6ccc7c(c6)OCO7)cc5n(Cc5nc(CC)no5)c4=O)CC3)cc1)=N[C@@H]1CCSC[C@H]21` [Example 46, 6-(1,3-benzodioxol-5-yl)-3-[1-({4-[(4aR,10bR)-9-ethoxy-8-methoxy-3,4,4a,10b-tetrahydro-1H-thiopyrano[4,3-c]isoquinolin-6-yl]phenyl}carbonyl)piperidin-4-yl]-1-[(3-ethyl-1,2,4-oxadiazol-5-yl)methyl]thieno[3,2-d]pyrimidine-2,4(1H,3H)-dione], for which the IC50 is below 10 nM in test [1] and 1 to 10 nM in test [2].

With `CCOc1cc2c(cc1OC)C(c1ccc(C(=O)N3CCC(n4c(=O)c5sc(-c6ccccc6)cc5n(Cc5nc(COC)no5)c4=O)CC3)cc1)=N[C@@H]1CCSC[C@H]21` [Example 15, 3-(1-{4-[(4aR,10bR)-9-ethoxy-8-methoxy-3,4,4a,10b-tetrahydro-1H-thiopyrano[4,3-c]isoquinolin-6-yl]benzoyl}piperidin-4-yl)-1-{[3-(methoxymethyl)-1,2,4-oxadiazol-5-yl]methyl}-6-phenylthieno[3,2-d]pyrimidine-2,4(1H,3H)-dione], the figures for the IC50 in test [1] and in test [2] were below 10 nM and 1 to 10 nM, respectively.

For `CCOc1cc2c(cc1OC)C(c1ccc(C(=O)N3CCC(n4c(=O)c5sc(-c6ccc(F)cc6)cc5n(Cc5nc(CC)no5)c4=O)CC3)cc1)=N[C@@H]1CCSC[C@H]21` [Example 47, 3-[1-({4-[(4aR,10bR)-9-ethoxy-8-methoxy-3,4,4a,10b-tetrahydro-1H-thiopyrano[4,3-c]isoquinolin-6-yl]phenyl}carbonyl)piperidin-4-yl]-1-[(3-ethyl-1,2,4-oxadiazol-5-yl)methyl]-6-(4-fluorophenyl)thieno[3,2-d]pyrimidine-2,4(1H,3H)-dione], the figures for the IC50 in test [1] and in test [2] were below 10 nM and 1 to 10 nM, respectively.

Take `CCOc1cc2c(cc1OC)C(c1ccc(C(=O)N3CCC(n4c(=O)c5sc(-c6ccccc6)cc5n(Cc5ncc(CC)o5)c4=O)CC3)cc1)=N[C@@H]1CCSC[C@H]21` [Example 1, 3-[1-({4-[(4aR,10bR)-9-ethoxy-8-methoxy-3,4,4a,10b-tetrahydro-1H-thiopyrano[4,3-c]isoquinolin-6-yl]phenyl}carbonyl)piperidin-4-yl]-1-[(5-ethyl-1,3-oxazol-2-yl)methyl]-6-phenylthieno[3,2-d]pyrimidine-2,4(1H,3H)-dione]: the IC50 in test [1] was below 10 nM; in test [2], 1 to 10 nM.

Take `CCOc1cc2c(cc1OC)C(c1ccc(C(=O)N3CCC(n4c(=O)c5sc(-c6ccccc6)cc5n(Cc5cc(CC)no5)c4=O)CC3)cc1)=N[C@@H]1CCSC[C@H]21` [Example 3, 3-[1-({4-[(4aR,10bR)-9-ethoxy-8-methoxy-3,4,4a,10b-tetrahydro-1H-thiopyrano[4,3-c]isoquinolin-6-yl]phenyl}carbonyl)piperidin-4-yl]-1-[(3-ethylisoxazol-5-yl)methyl]-6-phenylthieno[3,2-d]pyrimidine-2,4(1H,3H)-dione]: the IC50 is below 10 nM in test [1] and 1 to 10 nM in test [2].

For the origin of these results see US9018175B2 (Takeda GmbH, priority 2009, dated 2015).
